Measured values taken from US20170142962A1, “METHODS AND SOLUTIONS INCLUDING ADDITIVES AND STABILIZERS FOR KILLING OR DEACTIVATING SPORES” (EP Technologies LLC, priority 2015, published 2017).
Structures can show the parent of a compound that is named as a salt.

Tests used:
C. diff spores [1] = test: Example 1: direct DBD plasma treatment of EtOH, H2O2 or water solutions on spore-containing discs with soil; format: cell-based, Clostridium difficile; details: DBD 30 seconds, 35% EtOH, 70% EtOH, 3% H2O2
Protocol: In the following examples, various treatments were applied to measure the ability of plasma-activated liquids containing various additives to kill or deactivate spores from C. diff bacteria. Briefly, a volume of 10 μl of C. diff spores in sterile water (containing approximately 10^8 colony forming units (CFUs)/ml) was added onto a sterile stainless steel disc and left to dry for 30 minutes. The contaminated surfaces were then exposed to a treatment described below. After treatment, the killing or deactivation capacity of the treatment was measured by estimating the number of surviving CFUs. Estimation of surviving CFUs was determined by placing the disc in test tubes filled with a neutralizer. The test tubes were sonicated for 1 minute and vortexed for 15 seconds to fully remove spores from the surfaces. The neutralizer solution containing spores was diluted and plated on Brain Heart Infusion Agar supplemented with 0.1% Sodium Taurocholate (BHIT). The agar plates were incubated under anaerobic conditions for 36-48 hours at 37° C. CFUs were estimated based on colony counts on the agar plates following incubation. A direct plasma treatment (as shown in FIG. 1) with DBD was used for the testing. The direct DBD was created by an AC sinusoidal voltage power supply with a power scale at 15 (approximately 20 kV peak-to-peak) and a driving frequency of 20.5 kHz. […]

C. diff spores [2] = test: Example 2: direct DBD plasma treatment of differing EtOH concentrations on spore-containing discs with soil; format: cell-based, Clostridium difficile; details: 12 μl, DBD 30 seconds
Protocol: In the following examples, various treatments were applied to measure the ability of plasma-activated liquids containing various additives to kill or deactivate spores from C. diff bacteria. Briefly, a volume of 10 μl of C. diff spores in sterile water (containing approximately 10^8 colony forming units (CFUs)/ml) was added onto a sterile stainless steel disc and left to dry for 30 minutes. The contaminated surfaces were then exposed to a treatment described below. After treatment, the killing or deactivation capacity of the treatment was measured by estimating the number of surviving CFUs. Estimation of surviving CFUs was determined by placing the disc in test tubes filled with a neutralizer. The test tubes were sonicated for 1 minute and vortexed for 15 seconds to fully remove spores from the surfaces. The neutralizer solution containing spores was diluted and plated on Brain Heart Infusion Agar supplemented with 0.1% Sodium Taurocholate (BHIT). The agar plates were incubated under anaerobic conditions for 36-48 hours at 37° C. CFUs were estimated based on colony counts on the agar plates following incubation. A direct plasma treatment (as shown in FIG. 1) with DBD was used for the testing. […] The gap distance between the plasma reactor and the disc was 2 mm.

C. diff spores [3] = test: Example 11: plasma activated wipes used to wipe spore-containing surface; format: cell-based, Clostridium difficile; details: mechanical removal
Protocol: (§1) In the following examples, various treatments were applied to measure the ability of plasma-activated liquids containing various additives to kill or deactivate spores from C. diff bacteria. Briefly, a volume of 10 μl of C. diff spores in sterile water (containing approximately 10^8 colony forming units (CFUs)/ml) was added onto a sterile stainless steel disc and left to dry for 30 minutes. The contaminated surfaces were then exposed to a treatment described below. After treatment, the killing or deactivation capacity of the treatment was measured by estimating the number of surviving CFUs. Estimation of surviving CFUs was determined by placing the disc in test tubes filled with a neutralizer. The test tubes were sonicated for 1 minute and vortexed for 15 seconds to fully remove spores from the surfaces. The neutralizer solution containing spores was diluted and plated on Brain Heart Infusion Agar supplemented with 0.1% Sodium Taurocholate (BHIT). The agar plates were incubated under anaerobic conditions for 36-48 hours at 37° C. CFUs were estimated based on colony counts on the agar plates following incubation.

C. diff spores [4] = test: Example 3: direct DBD plasma treatment of H2O2 or NaNO2 solutions, spore inoculum in PBST; format: cell-based, Clostridium difficile; details: 1, 10, 100, 500 mM, 10 μl, DBD 20 seconds, two trials, NaNO2: other than at 10 mM
Protocol: as §1
A direct plasma treatment (as shown in FIG. 1) with DBD was used for the testing. […]

[5] = cited from earlier work
C. diff spores [6] = test: Example 4: direct DBD plasma treatment of acid solutions, spore inoculum in PBST with soil; format: cell-based, Clostridium difficile; details: 0.0001% to 10% acid solutions, 3 μl, DBD 20 seconds
Protocol: as §1
A direct plasma treatment (as shown in FIG. 1) with DBD was used for the testing. The direct DBD was created by a microsecond pulsed power supply which creates discrete voltage bursts at a repetition rate of 3.5 kHz which consist of decaying sinusoidal waveforms with a frequency of 32 kHz and a peak-to-peak voltage of approximately 20 kV. The gap distance between the plasma reactor and the disc was 2 mm. Spore inoculum for the stainless steel disc was prepared in 1×PBST with soil instead of sterile water. Citric acid, acetic acid, or HCl was added to water to produce 0.0001% to 10% acid solutions. 3 μl of each of these solutions was added to the spore-containing discs. After application, the discs were subjected to DBD treatment for 20 seconds.

[7] = cited from earlier work; remark: listed apart in the source

CCO [EtOH, ethanol]
kill or deactivation efficiency as additive in the water, versus water alone (C. diff spores [1]): substantially increased the kill or deactivation efficiency | killing or deactivation efficiency with increased concentration (C. diff spores [2]): increasing killing or deactivation efficiency | LR of wipe without plasma activation (C. diff spores [3]): ~0.7 LR

OO [H2O2, hydrogen peroxide]
kill or deactivation efficiency as additive in the water, versus water alone (C. diff spores [1]): substantially increased the kill or deactivation efficiency | effect of increasing the concentration on killing or deactivation efficiency (C. diff spores [4]): increased the killing or deactivation efficiency | OSHA permissible exposure limit ([5]; averaged over an 8-hour work shift): 1 ppm | AIHA ERPG-2 maximum airborne concentration ([5]; exposure up to an hour without irreversible or serious health effects): 50 ppm

Cl [HCl, hydrochloric acid]
killing or deactivation efficiency relative to water alone (C. diff spores [6]): increased the killing or deactivation efficiency

O=NO [NaNO2, sodium nitrite]
effect of increasing the concentration on killing or deactivation efficiency (C. diff spores [4]): did not increase the killing or deactivation efficiency

CC(=O)O [acetic acid]
killing or deactivation efficiency relative to water alone (C. diff spores [6]): increased the killing or deactivation efficiency

O=C(O)CC(O)(CC(=O)O)C(=O)O [citric acid]
killing or deactivation efficiency relative to water alone (C. diff spores [6]): increased the killing or deactivation efficiency

O=NOO [peroxynitrite]
half-life [7]: around 1 second
